Common to all, as to assay: cells
Assay [1] has as its system TG-LAM-134-P0. Also noted: species or system primary AML patient blasts. To be noted: 48 h.
Assay [2] deals with TG-LAM-141-P0. Also noted: species or system primary AML patient blasts. As to conditions: 48 h.
In assay [3] the test system is TG-LAM-77-P0. More on the design: species or system primary AML patient blasts. To be noted: 48 h.
Assay [4] has as its system TG-LAM-140-P0. Also noted: species or system primary AML patient blasts. As to conditions: 48 h.
The test system of assay [5] is TG-LAM-145-P0. Also noted: species or system primary AML patient blasts. As to conditions: 48 h.
Assay [6] concerns TG-LAM-75-P3. Also noted: species or system primary AML patient blasts. To be noted: 48 h, read-out: IC50 (µM) / AzaC.
Assay [7] relates to TG-LAM-136-P0. Also noted: species or system primary AML patient blasts. To be noted: 48 h.
Assay [8] concerns TG-LAM-142-P0. More on the design: species or system primary AML patient blasts. As to conditions: 48 h.
Assay [9] relates to TG-LAM-139-P0. More on the design: species or system primary AML patient blasts. As to conditions: 48 h.
In assay [10] the test system is TG-LAM-143-P0. More on the design: species or system primary AML patient blasts. To be noted: 48 h, read-out: IC50 (µM) / AzaC.
The test system of assay [11] is TG-LAM-144-P0. Also noted: species or system primary AML patient blasts. To be noted: 48 h.
Assay [12] deals with TG-LAM-76-P3. Also noted: species or system primary AML patient blasts. To be noted: 48 h, read-out: IC50 (µM) / AzaC.
Assay [13] has as its system TG-LAM-135-P0. More on the design: species or system primary AML patient blasts. As to conditions: 48 h.
Assay [14] relates to TG-LAM-138-P0. Also noted: species or system primary AML patient blasts. As to conditions: 48 h.
Assay [15] relates to HUT-78. To be noted: Homo sapiens, HuT78, 144 h, read-out: Eribulin.
For assay [16], the system named is HL-60. As to conditions: Homo sapiens, HL-60, 144 h, read-out: Eribulin.
For assay [17], the system named is A-549. As to conditions: Homo sapiens, A549, 144 h, read-out: Eribulin.
Assay [18] concerns SW-872. To be noted: Homo sapiens, SW872, 144 h.
Assay [19] concerns MESSA. As to conditions: Homo sapiens, MES-SA, 144 h.
Assay [20] concerns H-1299. As to conditions: Homo sapiens, NCI-H1299, 144 h, read-out: Eribulin.
The test system of assay [21] is HRT-18. To be noted: Homo sapiens, HRT-18, 144 h.
The test system of assay [22] is REC-1. As to conditions: Homo sapiens, Rec1, 144 h.
The test system of assay [23] is HEP-2. As to conditions: Homo sapiens, HEp-2, 144 h, read-out: Eribulin.
The test system of assay [24] is Karpas-299. As to conditions: Homo sapiens, KARPAS-299, 144 h, read-out: Eribulin.
Assay [25] relates to NALM-6. To be noted: Homo sapiens, NALM-6, 144 h, read-out: Eribulin.
In assay [26] the test system is DU-145. To be noted: Homo sapiens, DU-145, 144 h, read-out: Eribulin.
Assay [27] concerns U2OS. To be noted: Homo sapiens, U2OS, 144 h, read-out: Eribulin.
In assay [28] the test system is LnCaP. As to conditions: Homo sapiens, LNCaP, 144 h, read-out: Vincristine.
The test system of assay [29] is PC-3. To be noted: Homo sapiens, PC-3, 144 h, read-out: Vincristine.
The test system of assay [30] is MCF-7. As to conditions: Homo sapiens, MCF7, 144 h, read-out: Vincristine.
The test system of assay [31] is ACHN. As to conditions: Homo sapiens, ACHN, 144 h, read-out: Vincristine.
Assay [32] relates to MESSA. More on the design: species or system MES-SA/Mx2. To be noted: Homo sapiens, MES-SA, read-out: MES-SA.

Like-named read-outs stand apart in the source and are kept apart here.

In the case of `Nc1ncn([C@@H]2O[C@H](CO)[C@@H](O)[C@H]2O)c(=O)n1` [5-azacytidine], the IC50 was found to be 39.1 µM in assay [1] (read-out: IC50 (µM) / AzaC); 20.4 µM in assay [2] (read-out: IC50 (µM) / AzaC); 19.2 µM in assay [3] (read-out: IC50 (µM) / AzaC); 16.7 µM in [4] (read-out: IC50 (µM) / AzaC); 49.5 µM in [5] (read-out: IC50 (µM) / AzaC); 13 µM in assay [6]. In addition, the IC50 in assay [7] (read-out: IC50 (µM) / AzaC) was over 50 µM; in assay [8] (read-out: IC50 (µM) / AzaC) it was over 50 µM; in assay [9] (read-out: IC50 (µM) / AzaC) it was 38.5 µM; in [10], 29.2 µM; in assay [11] (read-out: IC50 (µM) / AzaC), 41.7 µM; in [12], 9.7 µM. Moreover, the IC50 in assay [13] (read-out: IC50 (µM) / AzaC) and in assay [14] (read-out: IC50 (µM) / AzaC) was over 50 µM each time.

`C=C1C[C@@H]2CC[C@@]34C[C@H]5O[C@H]6[C@@H](O3)[C@H]3O[C@H](CC[C@@H]3O[C@H]6[C@H]5O4)CC(=O)C[C@@H]3[C@@H](OC)[C@@H](C[C@H](O)CN)O[C@H]3C[C@H]3O[C@@H](CC[C@@H]1O2)C[C@@H](C)C3=C` [Eribulin]: the IC50 in assay [15] was 1 nM; in assay [16], 2 nM; in assay [17], 3 nM; in assay [18] (read-out: Eribulin) it was 83 nM; in assay [19] (read-out: Eribulin) it was 121 nM; in [20] it was 75 nM. For the same molecule, the IC50 in assay [21] (read-out: Eribulin) was 99 nM; in assay [22] (read-out: Eribulin) it was 125 nM; in [23] it was 39 nM; in assay [24], 1 nM; in assay [25], 2 nM; in assay [26], 2 nM. The IC50 in assay [27] was determined as 32 nM.

Consider `CC[C@]1(O)C[C@H]2CN(CCc3c([nH]c4ccccc34)[C@@](C(=O)OC)(c3cc4c(cc3OC)N(C=O)[C@H]3[C@@](O)(C(=O)OC)[C@H](OC(C)=O)[C@]5(CC)C=CCN6CC[C@]43[C@@H]65)C2)C1` [Vincristine], for which the IC50 in assay [28] was 66 nM; in assay [29] it was 23 nM; in assay [18] (read-out: Vincristine), 31 nM; in assay [19] (read-out: Vincristine), 106 nM; in assay [21] (read-out: Vincristine), 13 nM; in assay [22] (read-out: Vincristine), 56 nM. In addition, the IC50 in assay [30] is 37 nM; in assay [31] it was 166 nM; in [32], 7.9 ± 6 nM; in [1] (read-out: IC50 (µM) / Vinc), 0.17 µM; in assay [2] (read-out: IC50 (µM) / Vinc), 1.38 µM; in assay [3] (read-out: IC50 (µM) / Vinc), over 2 µM. Further, the IC50 was 1.13 µM in assay [4] (read-out: IC50 (µM) / Vinc); over 2 µM in [5] (read-out: IC50 (µM) / Vinc); 1.35 µM in assay [7] (read-out: IC50 (µM) / Vinc); over 2 µM in [8] (read-out: IC50 (µM) / Vinc); over 2 µM in [9] (read-out: IC50 (µM) / Vinc); 1.6 µM in assay [11] (read-out: IC50 (µM) / Vinc). Further, the IC50 in assay [13] (read-out: IC50 (µM) / Vinc) and in assay [14] (read-out: IC50 (µM) / Vinc) was over 2 µM each time.

For `CC(=O)O[C@H]1C(=O)[C@@]2(C)[C@H]([C@H](OC(=O)c3ccccc3)[C@]3(O)C[C@H](OC(=O)[C@H](O)[C@@H](NC(=O)c4ccccc4)c4ccccc4)C(C)=C1C3(C)C)[C@]1(OC(C)=O)CO[C@@H]1C[C@@H]2O` [paclitaxel], the IC50 in [32] was found to be 8 ± 5 nM.
